# The source made the active and inactive calls. No cut-off for these calls is given here.
# Assays:
# Rattus norvegicus [1] = assay: Anti-inflammatory activity in Wistar rat assessed as inhibition of carrageenan-induced paw oedema at 50 mg/kg, po dosed 30 mins before carrageenan challenge and measured 30 mins post carrageenan challenge; assay type: functional
# Rattus norvegicus [2] = assay: Anti-inflammatory activity in Wistar rat assessed as inhibition of carrageenan-induced paw oedema at 50 mg/kg, po dosed 30 mins before carrageenan challenge and measured 60 mins post carrageenan challenge; assay type: functional
# Rattus norvegicus [3] = assay: Anti-inflammatory activity in Wistar rat assessed as inhibition of carrageenan-induced paw oedema at 50 mg/kg, po dosed 30 mins before carrageenan challenge and measured 120 mins post carrageenan challenge; assay type: functional
# Rattus norvegicus [4] = assay: Analgesic activity in Wistar rat assessed as tail flick latency time at 50 mg/kg, po measured 0 mins post dose by tail flick method (reference value: 3.5 +/- 0.8 secs); assay type: functional
# Rattus norvegicus [5] = assay: Analgesic activity in Wistar rat assessed as tail flick latency time at 50 mg/kg, po measured 30 mins post dose by tail flick method (reference value: 3.46 +/- 0.1 secs); assay type: functional
# Rattus norvegicus [6] = assay: Analgesic activity in Wistar rat assessed as tail flick latency time at 50 mg/kg, po measured 60 mins post dose by tail flick method (reference value: 3.47 +/- 0.1 secs); assay type: functional
# Rattus norvegicus [7] = assay: Analgesic activity in Wistar rat assessed as tail flick latency time at 50 mg/kg, po measured 90 mins post dose by tail flick method (reference value: 3.7 +/- 0.1 secs); assay type: functional
# Mus musculus [8] = assay: Acute toxicity in Swiss mouse assessed as induction of diarrhoea incidence at 100 to 1000 mg/kg, po measured 48 hrs post dose; assay type: organism-based; conditions: in vivo
# Mus musculus [9] = assay: Acute toxicity in Swiss mouse assessed as induction of depression incidence at 100 to 1000 mg/kg, po measured 48 hrs post dose; assay type: organism-based; conditions: in vivo
# [10] = Acute toxicity in Swiss mouse at 100 to 1000 mg/kg, po measured 48 hrs post dose; assay type: organism-based; conditions: in vivo
# Staphylococcus = assay: Antimicrobial activity against Staphylococcus citreus at 20 uL of 1 mg/ml by disc diffusion assay; assay type: functional; conditions: for zone of inhibition at 1000 µg/mL: read-out: IZ
# Staphylococcus aureus = assay: Antimicrobial activity against Staphylococcus aureus at 20 uL of 1 mg/ml by disc diffusion assay; assay type: functional; conditions: for zone of inhibition at 1000 µg/mL: read-out: IZ
# Aeromonas hydrophila = assay: Antimicrobial activity against Aeromonas hydrophila at 20 uL of 1 mg/ml by disc diffusion assay; assay type: functional; conditions: for zone of inhibition at 1000 µg/mL: read-out: IZ
# Escherichia coli = assay: Antimicrobial activity against Escherichia coli at 20 uL of 1 mg/ml by disc diffusion assay; assay type: functional; conditions: for zone of inhibition at 1000 µg/mL: read-out: IZ
smiles,measurement,setting,value
Cc1ccc(C2=NN(c3ccc([N+](=O)[O-])cc3)C(c3cn(-c4ccccc4)nc3-c3ccc(Cl)c(Cl)c3)C2)cc1 (configuration not stated),inhibition in vivo at 50 mg/kg,Rattus norvegicus [1],57.4%
same,inhibition in vivo at 50 mg/kg,Rattus norvegicus [2],72.5%
same,inhibition in vivo at 50 mg/kg,Rattus norvegicus [3],71.9%
same,Time,Rattus norvegicus [4],3.4 s
same,Time,Rattus norvegicus [5],7 s
same,Time,Rattus norvegicus [6],7.4 s
same,Time,Rattus norvegicus [7],6.6 s
same,Activity,Mus musculus [8],Non-toxic
same,Activity,Mus musculus [9],Non-toxic
same,LD50 at 48 h,[10],500 mg/kg
same,zone of inhibition at 1000 µg/mL,Staphylococcus,16 mm
same,zone of inhibition at 1000 µg/mL,Staphylococcus aureus,21 mm
same,zone of inhibition at 1000 µg/mL,Aeromonas hydrophila,19 mm
same,zone of inhibition at 1000 µg/mL,Escherichia coli,16 mm
O=CN1N=C(c2ccc(Cl)cc2)CC1c1cn(-c2ccccc2)nc1-c1ccc(Cl)c(Cl)c1 (configuration not stated),inhibition in vivo at 50 mg/kg,Rattus norvegicus [1],35.1%
same,inhibition in vivo at 50 mg/kg,Rattus norvegicus [2],51.1%
same,inhibition in vivo at 50 mg/kg,Rattus norvegicus [3],57.8%
same,Time,Rattus norvegicus [4],3 s
same,Time,Rattus norvegicus [5],4.5 s
same,Time,Rattus norvegicus [6],4.7 s
same,Time,Rattus norvegicus [7],4.3 s
same,Activity,Mus musculus [8],Non-toxic
same,Activity,Mus musculus [9],Non-toxic
same,LD50 at 48 h,[10],500 mg/kg
same,zone of inhibition at 1000 µg/mL,Staphylococcus,21 mm
same,zone of inhibition at 1000 µg/mL,Staphylococcus aureus,18 mm
same,inhibition zone (IZ),Aeromonas hydrophila,inactive
same,inhibition zone (IZ),Escherichia coli,inactive
O=[N+]([O-])c1ccc(N2N=C(c3ccc(F)cc3)CC2c2cn(-c3ccccc3)nc2-c2ccc(Cl)c(Cl)c2)cc1 (configuration not stated),inhibition in vivo at 50 mg/kg,Rattus norvegicus [1],45.7%
same,inhibition in vivo at 50 mg/kg,Rattus norvegicus [2],60.3%
same,inhibition in vivo at 50 mg/kg,Rattus norvegicus [3],65.6%
same,Time,Rattus norvegicus [4],3.8 s
same,Time,Rattus norvegicus [5],5.1 s
same,Time,Rattus norvegicus [6],5.7 s
same,Time,Rattus norvegicus [7],5.2 s
same,Activity,Mus musculus [8],Non-toxic
same,Activity,Mus musculus [9],Non-toxic
same,LD50 at 48 h,[10],500 mg/kg
same,zone of inhibition at 1000 µg/mL,Staphylococcus,21 mm
same,zone of inhibition at 1000 µg/mL,Staphylococcus aureus,20 mm
same,inhibition zone (IZ),Aeromonas hydrophila,inactive
same,inhibition zone (IZ),Escherichia coli,inactive
CCC(=O)N1N=C(c2ccc(C)cc2)CC1c1cn(-c2ccccc2)nc1-c1ccc(Cl)c(Cl)c1 (configuration not stated),inhibition in vivo at 50 mg/kg,Rattus norvegicus [1],29.8%
same,inhibition in vivo at 50 mg/kg,Rattus norvegicus [2],61.1%
same,inhibition in vivo at 50 mg/kg,Rattus norvegicus [3],70.3%
same,Time,Rattus norvegicus [4],3.3 s
same,Time,Rattus norvegicus [5],5.3 s
same,Time,Rattus norvegicus [6],6.4 s
same,Time,Rattus norvegicus [7],5.9 s
same,Activity,Mus musculus [8],Non-toxic
same,Activity,Mus musculus [9],Non-toxic
same,LD50 at 48 h,[10],500 mg/kg
same,inhibition zone (IZ),Staphylococcus,inactive
same,zone of inhibition at 1000 µg/mL,Staphylococcus aureus,24 mm
same,inhibition zone (IZ),Aeromonas hydrophila,inactive
same,zone of inhibition at 1000 µg/mL,Escherichia coli,22 mm
CC(=O)N1N=C(c2ccc(F)cc2)CC1c1cn(-c2ccccc2)nc1-c1ccc(Cl)c(Cl)c1 (configuration not stated),inhibition in vivo at 50 mg/kg,Rattus norvegicus [1],45.7%
same,inhibition in vivo at 50 mg/kg,Rattus norvegicus [2],59.5%
same,inhibition in vivo at 50 mg/kg,Rattus norvegicus [3],72.7%
same,Time,Rattus norvegicus [4],3.5 s
same,Time,Rattus norvegicus [5],6.8 s
same,Time,Rattus norvegicus [6],6.5 s
same,Time,Rattus norvegicus [7],6.6 s
same,Activity,Mus musculus [8],Non-toxic
same,Activity,Mus musculus [9],Non-toxic
same,LD50 at 48 h,[10],500 mg/kg
same,inhibition zone (IZ),Staphylococcus,inactive
same,inhibition zone (IZ),Staphylococcus aureus,inactive
same,zone of inhibition at 1000 µg/mL,Aeromonas hydrophila,19 mm
same,zone of inhibition at 1000 µg/mL,Escherichia coli,12 mm
Cc1ccc(C2=NN(C=O)C(c3cn(-c4ccccc4)nc3-c3ccc(Cl)c(Cl)c3)C2)cc1 (configuration not stated),inhibition in vivo at 50 mg/kg,Rattus norvegicus [1],35.1%
same,inhibition in vivo at 50 mg/kg,Rattus norvegicus [2],53.4%
same,inhibition in vivo at 50 mg/kg,Rattus norvegicus [3],60.9%
same,Time,Rattus norvegicus [4],3.4 s
same,Time,Rattus norvegicus [5],4.7 s
same,Time,Rattus norvegicus [6],4.6 s
same,Time,Rattus norvegicus [7],4.4 s
same,Activity,Mus musculus [8],Non-toxic
same,Activity,Mus musculus [9],Non-toxic
same,LD50 at 48 h,[10],500 mg/kg
same,zone of inhibition at 1000 µg/mL,Staphylococcus,16 mm
same,inhibition zone (IZ),Staphylococcus aureus,inactive
same,inhibition zone (IZ),Aeromonas hydrophila,inactive
same,zone of inhibition at 1000 µg/mL,Escherichia coli,20 mm
O=CN1N=C(c2ccc(F)cc2)CC1c1cn(-c2ccccc2)nc1-c1ccc(Cl)c(Cl)c1 (configuration not stated),inhibition in vivo at 50 mg/kg,Rattus norvegicus [1],37.2%
same,inhibition in vivo at 50 mg/kg,Rattus norvegicus [2],56.5%
same,inhibition in vivo at 50 mg/kg,Rattus norvegicus [3],60.9%
same,Time,Rattus norvegicus [4],3.5 s
same,Time,Rattus norvegicus [5],6.3 s
same,Time,Rattus norvegicus [6],6.4 s
same,Time,Rattus norvegicus [7],6.6 s
same,Activity,Mus musculus [8],Non-toxic
same,Activity,Mus musculus [9],Non-toxic
same,LD50 at 48 h,[10],500 mg/kg
same,zone of inhibition at 1000 µg/mL,Staphylococcus,18 mm
same,zone of inhibition at 1000 µg/mL,Staphylococcus aureus,13 mm
same,zone of inhibition at 1000 µg/mL,Aeromonas hydrophila,10 mm
same,zone of inhibition at 1000 µg/mL,Escherichia coli,12 mm
CC(=O)N1N=C(c2ccc(Cl)cc2)CC1c1cn(-c2ccccc2)nc1-c1ccc(Cl)c(Cl)c1 (configuration not stated),inhibition in vivo at 50 mg/kg,Rattus norvegicus [1],45.7%
same,inhibition in vivo at 50 mg/kg,Rattus norvegicus [2],57.2%
same,inhibition in vivo at 50 mg/kg,Rattus norvegicus [3],66.4%
same,Time,Rattus norvegicus [4],3.5 s
same,Time,Rattus norvegicus [5],5.5 s
same,Time,Rattus norvegicus [6],5.9 s
same,Time,Rattus norvegicus [7],5.1 s
same,Activity,Mus musculus [8],Non-toxic
same,Activity,Mus musculus [9],Non-toxic
same,LD50 at 48 h,[10],500 mg/kg
same,zone of inhibition at 1000 µg/mL,Staphylococcus,13 mm
same,zone of inhibition at 1000 µg/mL,Staphylococcus aureus,21 mm
same,zone of inhibition at 1000 µg/mL,Aeromonas hydrophila,19 mm
same,inhibition zone (IZ),Escherichia coli,inactive
Fc1ccc(C2=NNC(c3cn(-c4ccccc4)nc3-c3ccc(Cl)c(Cl)c3)C2)cc1 (configuration not stated),inhibition in vivo at 50 mg/kg,Rattus norvegicus [1],45.7%
same,inhibition in vivo at 50 mg/kg,Rattus norvegicus [2],40.5%
same,inhibition in vivo at 50 mg/kg,Rattus norvegicus [3],46.1%
same,Time,Rattus norvegicus [4],3.1 s
same,Time,Rattus norvegicus [5],4.5 s
same,Time,Rattus norvegicus [6],4.8 s
same,Time,Rattus norvegicus [7],4.2 s
same,Activity,Mus musculus [8],Non-toxic
same,Activity,Mus musculus [9],Non-toxic
same,LD50 at 48 h,[10],500 mg/kg
same,zone of inhibition at 1000 µg/mL,Staphylococcus,23 mm
same,zone of inhibition at 1000 µg/mL,Staphylococcus aureus,14 mm
same,zone of inhibition at 1000 µg/mL,Aeromonas hydrophila,16 mm
same,inhibition zone (IZ),Escherichia coli,inactive
O=[N+]([O-])c1ccc(N2N=C(c3ccc(Cl)cc3)CC2c2cn(-c3ccccc3)nc2-c2ccc(Cl)c(Cl)c2)cc1 (configuration not stated),inhibition in vivo at 50 mg/kg,Rattus norvegicus [1],48.9%
same,inhibition in vivo at 50 mg/kg,Rattus norvegicus [2],57.2%
same,inhibition in vivo at 50 mg/kg,Rattus norvegicus [3],69.5%
same,Time,Rattus norvegicus [4],3.4 s
same,Time,Rattus norvegicus [5],6.9 s
same,Time,Rattus norvegicus [6],7 s
same,Time,Rattus norvegicus [7],6.6 s
same,Activity,Mus musculus [8],Non-toxic
same,Activity,Mus musculus [9],Non-toxic
same,LD50 at 48 h,[10],500 mg/kg
same,zone of inhibition at 1000 µg/mL,Staphylococcus,18 mm
same,zone of inhibition at 1000 µg/mL,Staphylococcus aureus,22 mm
same,zone of inhibition at 1000 µg/mL,Aeromonas hydrophila,21 mm
same,zone of inhibition at 1000 µg/mL,Escherichia coli,31 mm
Cc1ccc(C2=NNC(c3cn(-c4ccccc4)nc3-c3ccc(Cl)c(Cl)c3)C2)cc1 (configuration not stated),inhibition in vivo at 50 mg/kg,Rattus norvegicus [1],38.3%
same,inhibition in vivo at 50 mg/kg,Rattus norvegicus [2],56.5%
same,inhibition in vivo at 50 mg/kg,Rattus norvegicus [3],48.4%
same,Time,Rattus norvegicus [4],3.6 s
same,Time,Rattus norvegicus [5],5.9 s
same,Time,Rattus norvegicus [6],6.3 s
same,Time,Rattus norvegicus [7],6.5 s
same,Activity,Mus musculus [8],Non-toxic
same,Activity,Mus musculus [9],Non-toxic
same,LD50 at 48 h,[10],500 mg/kg
same,inhibition zone (IZ),Staphylococcus,inactive
same,zone of inhibition at 1000 µg/mL,Staphylococcus aureus,19 mm
same,zone of inhibition at 1000 µg/mL,Aeromonas hydrophila,11 mm
same,zone of inhibition at 1000 µg/mL,Escherichia coli,15 mm
CC(=O)N1N=C(c2ccc(C)cc2)CC1c1cn(-c2ccccc2)nc1-c1ccc(Cl)c(Cl)c1 (configuration not stated),inhibition in vivo at 50 mg/kg,Rattus norvegicus [1],27.6%
same,inhibition in vivo at 50 mg/kg,Rattus norvegicus [2],59.5%
same,inhibition in vivo at 50 mg/kg,Rattus norvegicus [3],70.3%
same,Time,Rattus norvegicus [4],3.5 s
same,Time,Rattus norvegicus [5],5.3 s
same,Time,Rattus norvegicus [6],5.5 s
same,Time,Rattus norvegicus [7],5.5 s
same,Activity,Mus musculus [8],Non-toxic
same,Activity,Mus musculus [9],Non-toxic
same,LD50 at 48 h,[10],500 mg/kg
same,inhibition zone (IZ),Staphylococcus,inactive
same,zone of inhibition at 1000 µg/mL,Staphylococcus aureus,19 mm
same,inhibition zone (IZ),Aeromonas hydrophila,inactive
same,zone of inhibition at 1000 µg/mL,Escherichia coli,18 mm
Cc1ccc(C2=NN(c3ccccc3)C(c3cn(-c4ccccc4)nc3-c3ccc(Cl)c(Cl)c3)C2)cc1 (configuration not stated),inhibition in vivo at 50 mg/kg,Rattus norvegicus [1],46.8%
same,inhibition in vivo at 50 mg/kg,Rattus norvegicus [2],58.8%
same,inhibition in vivo at 50 mg/kg,Rattus norvegicus [3],62.5%
same,Time,Rattus norvegicus [4],3.3 s
same,Time,Rattus norvegicus [5],6.7 s
same,Time,Rattus norvegicus [6],7.1 s
same,Time,Rattus norvegicus [7],6.6 s
same,Activity,Mus musculus [8],Non-toxic
same,Activity,Mus musculus [9],Non-toxic
same,LD50 at 48 h,[10],500 mg/kg
same,inhibition zone (IZ),Staphylococcus,inactive
same,zone of inhibition at 1000 µg/mL,Staphylococcus aureus,15 mm
same,zone of inhibition at 1000 µg/mL,Aeromonas hydrophila,18 mm
same,zone of inhibition at 1000 µg/mL,Escherichia coli,20 mm
